Test results taken from patent publication US20110028686A1, “Protein binding miniature proteins” (Yale University, priority 2000, published 2011).
Read-outs that look alike come from different tables or passages of the source. Peptide text beside a SMILES is read from it. * marks the point of attachment. Fluorescein(5-NHCOCH2) = O=C(C*)Nc1ccc2c(c1)C(=O)OC21c2ccc(O)cc2Oc2cc(O)ccc21

Assays:
[1] = molecular target: T1, HisKIX (His-tagged CBP KIX domain) (Mus musculus, UniProt P45481); assay: Equilibrium fluorescence polarization, HisKIX binding; settings: 25° C.
T1 construct: The CBP KIX-coding region (residues 586 to 672) of pGEX-KT KIX 10-672; made in house; host or cells: E. coli BL21(DE3) pArg

[2] = tested on: hsCRE24 (CRE half-site DNA, ATGAC); assay: Electrophoretic mobility shift assay, binding to hsCRE24 DNA; settings: for DNA binding: EMSA
Method: Miniature protein-binding to DNA was measured using an electrophoretic mobility shift assay performed in a Model SE600 Dual-Controller Vertical Slab Unit (Hoefer) using 14×16 cm gel plates. Temperature was controlled using a constant temperature bath. Reactions were performed in a binding buffer composed of 137 mM NaCl, 2.7 mM KCl, 4.3 mM Na2HPO4, 1.4 mM NaH2PO4 (pH 7.4), 1 mM EDTA, 0.1% NP-40, 0.4 mg/ml BSA (non-acetylated) and 5% glycerol. For experiments involving the bZIP peptide C/EBP152, the binding buffer was supplemented with 2 mM dithiothreitol. Serial peptide dilutions were performed as 1:1 dilutions with binding buffer. In general, 0.002 ml of gamma ^32P-labeled, double-stranded DNA (CRE24, hsCRE24, C/EBP24 or hsCEBP24; final concentration ≦50 pM in binding buffer; final concentration ≦5 pM for peptides with Kapp <500 pM) in binding buffer were added to 0.008 ml of a serial peptide dilution on ice. Peptide-DNA mixtures were incubated for thirty minutes on ice and then applied to a pre-equilibrated, native polyacrylamide gel (8% acrylamide:bisacrylamide) prepared in 10 mM Tris buffer (pH. 8.1). Gels were allowed to run 0.75 to 1.5 hours at 500 V and were dried on a Model SE1160 Drygel Sr. gel dryer (Hoefer). The gels were analyzed using a Storm 840 Phosphorimager (Molecular Dynamics). Amounts of free and bound DNA were quantified and analyzed using the program KaleidaGraph 3.0 (Synergy Software). Dissociation constants were determined by fitting the data to the Langmuir equation=c[(1+(Kapp/peptideT^n))^−1] where n=1 for PPEBP^SR and EBP^SR and n=2 for C/EBP152. In these equations, theta=cpm in protein-DNA complex/(cpm in protein-DNA complex+cpm free DNA); peptideT=the total peptide concentration and c is an adjustable parameter representing the maximum value of theta (c ≦1; for many peptides c was defined as 1). Values reported represent the average of at least three independent trials ±the standard error. Error bars on the plots represent the standard error for each data point.

[3] = fluorescein-labeled unphosphorylated peptide, read-out: Kd HisKIX, unphosphorylated peptide (U)
[4] = 4° C., read-out: affinity (Kd) for hsCRE
[5] = physiological ionic strength, read-out: equilibrium dissociation constant (Kd) of binding to hsCRE

T1 sequence (P45481 586-672): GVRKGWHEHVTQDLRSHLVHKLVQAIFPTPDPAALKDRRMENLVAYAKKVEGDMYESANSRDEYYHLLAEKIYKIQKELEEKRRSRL

CC[C@H](C)[C@H](NC(=O)[C@H](Cc1ccc(O)cc1)NC(=O)[C@H](Cc1ccccc1)NC(=O)[C@H](Cc1ccccc1)NC(=O)[C@H](COP(=O)(O)O)NC(=O)[C@H](CC(C)C)NC(=O)[C@H](CCCNC(=N)N)NC(=O)[C@H](CCCNC(=N)N)NC(=O)[C@@H](NC(=O)[C@@H]1CCCN1C(=O)[C@H](C)NC(=O)[C@H](CC(=O)O)NC(=O)[C@H](CC(=O)O)NC(=O)CNC(=O)[C@H](Cc1c[nH]cn1)NC(=O)[C@H](Cc1ccc(O)cc1)NC(=O)[C@@H](NC(=O)[C@@H]1CCCN1C(=O)[C@H](Cc1c[nH]c2ccccc12)NC(=O)[C@H](CO)NC(=O)[C@H](CC(C)C)NC(=O)CN)[C@@H](C)O)C(C)C)C(=O)N[C@@H](CC(C)C)C(=O)N[C@@H](CC(C)C)C(=O)N[C@@H](CC(=O)O)C(=O)N[C@@H](CC(C)C)C(=O)N[C@@H](Cc1ccc(O)cc1)C(=O)N[C@@H](CC(C)C)C(=O)N[C@@H](CC(=O)O)C(=O)N[C@@H](C)C(=O)N1CCC[C@H]1C(=O)NCC(=O)N[C@H](C(=O)N[C@@H](CSCC(=O)Nc1ccc2c(c1)C(=O)OC21c2ccc(O)cc2Oc2cc(O)ccc21)C(N)=O)C(C)C [PPKID5]
Kd ([1]; fluorescein-labeled phosphopeptide, read-out: Kd HisKIX, phosphorylated peptide (P)): 534 ± 31 nM
Kd [1, 3]: 6600 ± 2000 nM

CC[C@H](C)[C@H](NC(=O)CN)C(=O)N[C@@H](CO)C(=O)N[C@@H](Cc1c[nH]c2ccccc12)C(=O)N1CCC[C@H]1C(=O)N[C@H](C(=O)N[C@@H](Cc1ccccc1)C(=O)N[C@@H](CCC(=O)O)C(=O)NCC(=O)N[C@@H](CC(=O)O)C(=O)N[C@@H](CC(=O)O)C(=O)N[C@@H](C)C(=O)N1CCC[C@H]1C(=O)N[C@H](C(=O)N[C@@H](CCCNC(=N)N)C(=O)N[C@@H](CCCNC(=N)N)C(=O)N[C@@H](CC(C)C)C(=O)N[C@@H](CCC(=O)O)C(=O)N[C@@H](Cc1ccccc1)C(=O)N[C@@H](Cc1ccccc1)C(=O)N[C@@H](Cc1ccc(O)cc1)C(=O)N[C@H](C(=O)N[C@@H](CC(C)C)C(=O)N[C@@H](CC(C)C)C(=O)N[C@@H](CC(=O)O)C(=O)N[C@@H](CC(C)C)C(=O)N[C@@H](Cc1ccc(O)cc1)C(=O)N[C@@H](CC(C)C)C(=O)N[C@@H](CC(=O)O)C(=O)N[C@@H](C)C(=O)N1CCC[C@H]1C(=O)NCC(=O)N[C@H](C(=O)N[C@@H](CSCC(=O)Nc1ccc2c(c1)C(=O)OC21c2ccc(O)cc2Oc2cc(O)ccc21)C(N)=O)C(C)C)[C@@H](C)CC)C(C)C)[C@@H](C)O [PPKID6 S18E] (H-GISWPTFEGDDAPVRRLEFFYILLDLYLDAPGVC(Fluorescein(5-NHCOCH2))-NH2)
Kd [1, 3]: 10900 ± 2000 nM

DPAALKRARNTEAARRSRARKLQRMQC [G27, reference compound]
stability of hsCRE24 complex lower than that of PPBR4^SR-hsCRE24 complex [2]: 3.1 kcal/mol
Kd [2, 4]: 410 ± 53 nM
DNA binding at 25° C. [2]: Neither PPBR4 nor G27 showed evidence of DNA binding

GPSQPTYPGDDAPVEDLKRFRNTLAARRSRARKAARAAA [PPBR4^SR]
delta, delta-G, hsCRE24 in preference to hsCEBP24 [2]: -4.4 kcal/mol
ratio of protein concentrations required to bind one-half of the two DNA [2]: 2600
delta, delta-G of discrimination against mutations at the 5′ terminus of hsCRE ([2]; 4° C.): -1.7 kcal/mol
Kd [2, 4]: 1.9 ± 0.2 nM
DNA binding at 25° C. [2]: Neither PPBR4 nor G27 showed evidence of DNA binding
specificity ratio Krel, hsCRE24 in preference to hsCEBP24 ([2]; Krel (Kd(hsCRE)/Kd(hsCEPB))): 2600
formation of the hsCRE24 complex in presence of competitor DNA ([2]; high concentrations of poly (dIdC)-(dIdC) or a scrambled CRE site (NON)): unaffected
Kd [2, 5]: 1.5 nM

GPSQPTYPGDDAPVEDLKRFRNTLAARRSRARKLQRMKQ [PPBR2^SR]
Kd [2, 5]: 5 nM

PPBR10^SR: polyproline helix-basic region peptide, SEQ ID NO: 9 (GPSQPTYPGDDAPVEDLKRFRNTLAAYLSRLRKAARAAA; Pancreatic polypeptide basic region PPBR10)
DNA binding [2]: No significant DNA binding was detected

PPBR11^SR: polyproline helix-basic region peptide, SEQ ID NO: 10 (GPSQPTYPGDDAPVEDLKRFRNTLAARLSRLRKAARAAA; Pancreatic polypeptide basic region PPBR11)
DNA binding [2]: No significant DNA binding was detected

PPBRO^SR: polyproline helix-basic region peptide, SEQ ID NO: 8, lacking DNA-contact residue(s) (GPSQPTYPGDDAPVEDLKRFRNTLAAYLSVVRKLQRMKQ; Pancreatic polypeptide basic region PPBR0)
DNA binding [2]: No significant DNA binding was detected
